SMILES strings stand for the structures.

A short description of this test: Inhibition of HIV-1 gp120/CD4 interaction.

As to `C[C@@H]1CN(C(=O)c2ccccc2)CCN1C(=O)C(=O)c1c[nH]c2ccccc12`, the EC50 was found to be 4 nM.

The record behind these values is ChEMBL document CHEMBL3351853, “Discovery of small molecular inhibitors targeting HIV-1 gp120-CD4 interaction drived from BMS-378806” (Eur J Med Chem, 2014).
